Assay results as given in patent publication US12371454B2, “Cyclic peptide compound having Kras inhibitory action” (priority 2019, dated 2025).
Starred links: 1 amine or outer side, 2 acyl side, 3 side chain; linkers in the order of their positions; H or OH if unused. Positions of bridges follow the written chain, without caps; N, C: chain ends. Non-standard residues stand in square brackets, D forms with d. Residues, ends and D or L forms follow the SMILES beside them. *: point of attachment. hPhe(3-Cl-4-CF3) = N[C@@H](CCc1ccc(C(F)(F)F)c(Cl)c1)C(=O)O; hPhe(3-F,4-CF3) = N[C@@H](CCc1ccc(C(F)(F)F)c(F)c1)C(=O)O; NMePhe(4-CF3) = CN[C@@H](Cc1ccc(C(F)(F)F)cc1)C(=O)O; NMeTyr(3-F) = CN[C@@H](Cc1ccc(O)c(F)c1)C(=O)O; NMePhe(4-Me) = CN[C@@H](Cc1ccc(C)cc1)C(=O)O; NMedβ3hAla = C[C@H](CC(=O)[*:2])N(C)[*:1]; X22 = O=C([C@@H]1Cc2ccccc2N1[*:1])[*:2]; NMeGly(cPent) = CN[C@H](C(=O)O)C1CCCC1; Pro(4,4-F2) = O=C(O)[C@@H]1CC(F)(F)CN1; dαMeGly(allyl) = C=CC[C@@](C)(N)C(=O)O; NMeCha = CN[C@@H](CC1CCCCC1)C(=O)O; NMeChg = CN[C@H](C(=O)O)C1CCCCC1; NMeF = CN[C@@H](Cc1ccccc1)C(=O)O; NMeI = CC[C@H](C)[C@H](NC)C(=O)O; dNMeF = CN[C@H](Cc1ccccc1)C(=O)O; NMeD = CN[C@@H](CC(=O)O)C(=O)O; NMeL = CN[C@@H](CC(C)C)C(=O)O; NMeV = CN[C@H](C(=O)O)C(C)C; d(β3hA) = C[C@@H](N)CC(=O)O; Pip = O=C(O)[C@@H]1CCCCN1; dNMeS = CN[C@H](CO)C(=O)O; NMeA = CN[C@@H](C)C(=O)O; Piperidide = C1CCN(*)CC1; Ac5c = NC1(C(=O)O)CCCC1; Aze = O=C(O)[C@@H]1CCN1; Ac4c = NC1(C(=O)O)CCC1; Isopentyl = CC(C)CC*; Sar = CNCC(=O)O

Target: T1, Kras and SOS1 (biotin-tagged human Kras loaded with GDP, His-tagged human SOS1) (Homo sapiens, UniProt P01116, G12D)
T1 construct: made in house; host or cells: E. coli (stated for Kras only)
Assay: Protein-protein interaction inhibition between Kras and SOS1 (KrasGl2D-SOS PPI) using AlphaScreen
Type: binding
Conditions: AlphaScreen; biotin-tagged human Kras loaded with GDP, His-tagged human SOS1; read-out: KRAS G12D-SOS PPI IC50
Summary of the method: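 Binding between SOS1 and Kras is detected as bead-proximity luminescence: illuminate Ni-conjugated donors (680 nm), collect 520-620 nm emission from streptavidin-conjugated acceptors; Kras carries biotin and GDP loaded after purification, SOS1 carries a His tag.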

T1 sequence (P01116 1-188 isoform P01116-2 G12D): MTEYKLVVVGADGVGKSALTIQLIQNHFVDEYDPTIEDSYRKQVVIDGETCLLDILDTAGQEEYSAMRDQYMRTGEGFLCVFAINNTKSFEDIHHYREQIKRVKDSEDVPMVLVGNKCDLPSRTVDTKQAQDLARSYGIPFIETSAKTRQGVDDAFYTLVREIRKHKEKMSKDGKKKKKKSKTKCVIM

SMILES	IC50 [nM]
CC[C@H](C)[C@@H]1NC(=O)[C@H](CC(C)C)N(C)C(=O)C[C@@H](C(=O)N2CCCCC2)N(C)C(=O)[C@H](C2CCCCC2)N(C)C(=O)C2(CCCC2)NC(=O)[C@H](Cc2ccc(O)c(F)c2)N(C)C(=O)[C@H](CCc2ccc(C(F)(F)F)c(Cl)c2)NC(=O)CN(C)C(=O)[C@H](CC2CCCCC2)N(C)C(=O)CN(C)C(=O)CN(C)C1=O [Compound 2170] ([NMeL]I[Sar][Sar][NMeCha][Sar][hPhe(3-Cl-4-CF3)][NMeTyr(3-F)][Ac5c][NMeChg][NMeD]-Piperidide; lactam N-11)	69
CC[C@H](C)[C@@H]1NC(=O)[C@H](CC(C)C)N(C)C(=O)C[C@@H](C)NC(=O)[C@H](C2CCCC2)N(C)C(=O)[C@H](C(C)C)NC(=O)[C@@H]2CCCN2C(=O)[C@H](CCc2ccc(C(F)(F)F)c(Cl)c2)NC(=O)CN(C)C(=O)[C@H](Cc2ccc(C)cc2)N(C)C(=O)[C@@H]2CCN2C(=O)[C@H](C)N(C)C1=O [Compound 933] (cyclo([Aze][NMePhe(4-Me)][Sar][hPhe(3-Cl-4-CF3)]PV[NMeGly(cPent)][d(β3hA)][NMeL]I[NMeA]))	83
CC[C@H](C)[C@@H]1NC(=O)[C@H](CC(C)C)N(C)C(=O)C[C@@H](C(=O)N2CCCCC2)N(C)C(=O)[C@H](C2CCCCC2)N(C)C(=O)C2(CCCC2)NC(=O)[C@@H]2Cc3ccccc3N2C(=O)[C@H](CCc2ccc(C(F)(F)F)c(Cl)c2)NC(=O)CN(C)C(=O)[C@H](CC2CCCCC2)N(C)C(=O)[C@@H]2CCN2C(=O)[C@H](C)N(C)C1=O [Compound 812] ([NMeL]I[NMeA][Aze][NMeCha][Sar][hPhe(3-Cl-4-CF3)][X22][Ac5c][NMeChg][NMeD]-Piperidide; lactam N-11)	36
C=CC[C@@]1(C)NC(=O)[C@@H]2CCCN2C(=O)[C@H](CCc2ccc(C(F)(F)F)c(Cl)c2)NC(=O)CN(C)C(=O)[C@H](CC2CCCCC2)N(C)C(=O)CN(C)C(=O)CN(C)C(=O)[C@H]([C@@H](C)CC)NC(=O)[C@H](CC(C)C)N(C)C(=O)C[C@@H](C)NC(=O)[C@H](C(C)C)N(C)C1=O [Compound 665] (cyclo(I[Sar][Sar][NMeCha][Sar][hPhe(3-Cl-4-CF3)]P[dαMeGly(allyl)][NMeV][d(β3hA)][NMeL]))	37
CC[C@H](C)[C@@H]1NC(=O)[C@H](CC(C)C)N(C)C(=O)C[C@@H](C(=O)N2CCCCC2)N(C)C(=O)[C@H](C2CCCC2)N(C)C(=O)C2(CCCC2)NC(=O)[C@@H](COCCC(C)C)N(C)C(=O)[C@H](CCc2ccc(C(F)(F)F)c(Cl)c2)NC(=O)CN(C)C(=O)[C@H](CC2CCCCC2)N(C)C(=O)CN(C)C(=O)CN(C)C1=O [Compound 1440] ([NMeL]I[Sar][Sar][NMeCha][Sar][hPhe(3-Cl-4-CF3)][dNMeS](Isopentyl)[Ac5c][NMeGly(cPent)][NMeD]-Piperidide; lactam N-11)	16
CC[C@H](C)[C@@H]1NC(=O)[C@H](C)N(C)C(=O)C[C@@H](C(=O)N2CCCCC2)N(C)C(=O)[C@H]([C@@H](C)CC)N(C)C(=O)C2(CCCC2)NC(=O)[C@@H](Cc2ccccc2)N(C)C(=O)[C@H](CCc2ccc(C(F)(F)F)c(Cl)c2)NC(=O)CN(C)C(=O)[C@H](Cc2ccc(C(F)(F)F)cc2)N(C)C(=O)[C@@H]2CCN2C(=O)[C@H](C)N(C)C1=O [Compound 1942] ([NMeA]I[NMeA][Aze][NMePhe(4-CF3)][Sar][hPhe(3-Cl-4-CF3)][dNMeF][Ac5c][NMeI][NMeD]-Piperidide; lactam N-11)	290
CC[C@H](C)[C@@H]1NC(=O)[C@H](CC(C)C)N(C)C(=O)C[C@@H](C)N(C)C(=O)[C@H](C2CCCC2)N(C)C(=O)C2(CCC2)NC(=O)[C@@H]2CC(F)(F)CN2C(=O)[C@H](CCc2ccc(C(F)(F)F)c(Cl)c2)NC(=O)CN(C)C(=O)[C@H](CC2CCCCC2)N(C)C(=O)CN(C)C(=O)CN(C)C1=O [Compound 962] (cyclo([Ac4c][NMeGly(cPent)][NMedβ3hAla][NMeL]I[Sar][Sar][NMeCha][Sar][hPhe(3-Cl-4-CF3)][Pro(4,4-F2)]))	7.8
CC[C@H](C)[C@@H]1NC(=O)[C@H](C)N(C)C(=O)C[C@@H](C(=O)N2CCCCC2)N(C)C(=O)[C@H](C(C)C)N(C)C(=O)C2(CCCC2)NC(=O)[C@@H]2CCCN2C(=O)[C@H](CCc2ccc(C(F)(F)F)c(Cl)c2)NC(=O)CN(C)C(=O)[C@H](Cc2ccccc2)N(C)C(=O)[C@@H]2CCCN2C(=O)CN(C)C1=O [Compound 1753] ([NMeA]I[Sar]P[NMeF][Sar][hPhe(3-Cl-4-CF3)]P[Ac5c][NMeV][NMeD]-Piperidide; lactam N-11)	2.5
CC[C@H](C)[C@@H]1NC(=O)[C@@H]2CCCCN2C(=O)C[C@@H](C(=O)N2CCCCC2)N(C)C(=O)[C@H](C(C)C)N(C)C(=O)C2(CCCC2)NC(=O)[C@@H]2CCCN2C(=O)[C@H](CCc2ccc(C(F)(F)F)c(F)c2)NC(=O)CN(C)C(=O)[C@H](CC2CCCCC2)N(C)C(=O)CN(C)C(=O)CN(C)C1=O [Compound 670] ([Pip]I[Sar][Sar][NMeCha][Sar][hPhe(3-F,4-CF3)]P[Ac5c][NMeV][NMeD]-Piperidide; lactam N-11)	5.1
